Reference: the supplement of paper PMC11208160

Assay: recombinant UMI read abundance after kanamycin selection (control-corrected) (log10(CPM+1)); higher = more efficient recombination; extreme values may be limits of the assay; sequences stand for … in AGTGCAGAGAAAATCGGCCAGTTTTCTCTGCCTGCAGTCCGCATGCCGTGGGACCCCTTGGGTTCTAACCTGTTGCCTAGATTTATGCAGCGGACTGCCTTTCTCCCAAAGTGATAAACCGG…AGGTTGGTTTCACT; site = the 11-nt donor
Method in brief: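 The measure is log10(CPM+1) for recombinant UMIs. These were PCR-amplified across the donor–target junction and sequenced after Escherichia coli carrying a donor and donor-binding-loop pair library and a target plasmid with T7-inducible IS621 bridge recombinase was plated on IPTG (0.07 mM) plus kanamycin or unselected. CPM were averaged over two replicates and scaled by control-derived factors.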
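Note: IS621 bridge recombinase in Escherichia coli cells against a fixed T5 target plasmid.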

First: AGCCCCTCATGGACCGGTTTTCCCGGTAATCCGTATTTGCA (site AGCCCCTCTTG)
Second: AGCCCTCCATGGACCGGTTTTCCCGGTAATCCGTATTTGTT (site AGCCCTCCTAA)
The “recombinant UMI read abundance (log10)” value of the first is higher: 2.75 for the first, 0.00736 for the second.

Going from “AGCCGAGCATGGACCGGTTTTCCCGGTAATCCGTATTTGTT (site AGCCAAGCTAA)” to “AGCCGAGCATGGACCGGTTTTCCCGGTAATCCGTATTTGTT (site AGCCCAGCTAA)”, the “recombinant UMI read abundance (log10)” value falls from 0.398 to 0.0229.

First: AGCCGAGCATGGACCGGTTTTCCCGGTAATCCGTATTTGTT (site AGCCGAGCTAA)
Second: AGCCGAGCATGGACCGGTTTTCCCGGTAATCCGTATTTGTT (site AGCCTAGCTAA)
The “recombinant UMI read abundance (log10)” value of the first is higher: 0.837 for the first, 0.00511 for the second.

“AGCCGTTCATGGACCGGTTTTCCCGGTAATCCGTATTTGAC (site AGCCATTCTGT)” and “AGCCGTTCATGGACCGGTTTTCCCGGTAATCCGTATTTGAC (site AGCCCTTCTGT)” are the same in “recombinant UMI read abundance (log10)” value: 0 for the first, 0 for the second.

Going from “AGCCGTTCATGGACCGGTTTTCCCGGTAATCCGTATTTGAC (site AGCCGTTCTGT)” to “AGCCGTTCATGGACCGGTTTTCCCGGTAATCCGTATTTGAC (site AGCCTTTCTGT)”, the “recombinant UMI read abundance (log10)” value falls from 1.9 to 0.

“AGCCTAGCATGGACCGGTTTTCCCGGTAATCCGTATTTGCT (site AGCCTAGCTAA)” and “AGCCTAGCATGGACCGGTTTTCCCGGTAATCCGTATTTGCT (site AGCCTAGCTAC)” are within 0.2 log units of each other in “recombinant UMI read abundance (log10)” value: 0.0111 for the first, 0.0198 for the second.

“AGCCTAGCATGGACCGGTTTTCCCGGTAATCCGTATTTGCT (site AGCCTAGCTAG)” and “AGCCTAGCATGGACCGGTTTTCCCGGTAATCCGTATTTGCT (site AGCCTAGCTAT)” are within 0.2 log units of each other in “recombinant UMI read abundance (log10)” value: 0.00934 for the first, 0 for the second.

“AGCCTAGCATGGACCGGTTTTCCCGGTAATCCGTATTTGTG (site AGCCTAGCTAA)” and “AGCCTAGCATGGACCGGTTTTCCCGGTAATCCGTATTTGTG (site AGCCTAGCTCA)” are within 0.2 log units of each other in “recombinant UMI read abundance (log10)” value: 0.0164 for the first, 0.0603 for the second.

“AGCCTAGCATGGACCGGTTTTCCCGGTAATCCGTATTTGTG (site AGCCTAGCTGA)” and “AGCCTAGCATGGACCGGTTTTCCCGGTAATCCGTATTTGTG (site AGCCTAGCTTA)” are within 0.2 log units of each other in “recombinant UMI read abundance (log10)” value: 0 for the first, 0.00858 for the second.

“AGCCTATCATGGACCGGTTTTCCCGGTAATCCGTATTTGTT (site AGCCTAACTAA)” and “AGCCTATCATGGACCGGTTTTCCCGGTAATCCGTATTTGTT (site AGCCTACCTAA)” are within 0.2 log units of each other in “recombinant UMI read abundance (log10)” value: 0.0449 for the first, 0.00813 for the second.

“AGCCTATCATGGACCGGTTTTCCCGGTAATCCGTATTTGTT (site AGCCTAGCTAA)” and “AGCCTATCATGGACCGGTTTTCCCGGTAATCCGTATTTGTT (site AGCCTATCTAA)” are within 0.2 log units of each other in “recombinant UMI read abundance (log10)” value: 0.0191 for the first, 0 for the second.

First: AGCCTCGCATGGACCGGTTTTCCCGGTAATCCGTATTTGTA (site AGCCTCGCTTA)
Second: AGCCTCGCATGGACCGGTTTTCCCGGTAATCCGTATTTGTT (site AGCCTAGCTAA)
The “recombinant UMI read abundance (log10)” value of the first is higher: 0.57 for the first, 0.0107 for the second.

“AGCCTCGCATGGACCGGTTTTCCCGGTAATCCGTATTTGTT (site AGCCTCGCTAA)” and “AGCCTCGCATGGACCGGTTTTCCCGGTAATCCGTATTTGTT (site AGCCTGGCTAA)” are within 0.2 log units of each other in “recombinant UMI read abundance (log10)” value: 0.0635 for the first, 0.00929 for the second.

“AGCCTCGCATGGACCGGTTTTCCCGGTAATCCGTATTTGTT (site AGCCTTGCTAA)” and “AGCCTTGCATGGACCGGTTTTCCCGGTAATCCGTATTTGAC (site AGCCTTACTGT)” are within 0.2 log units of each other in “recombinant UMI read abundance (log10)” value: 0.0107 for the first, 0 for the second.

Going from “AGCCTTGCATGGACCGGTTTTCCCGGTAATCCGTATTTGAC (site AGCCTTCCTGT)” to “AGCCTTGCATGGACCGGTTTTCCCGGTAATCCGTATTTGAC (site AGCCTTGCTGT)”, the “recombinant UMI read abundance (log10)” value rises from 0 to 1.36.

“AGCCTTGCATGGACCGGTTTTCCCGGTAATCCGTATTTGAC (site AGCCTTTCTGT)” and “AGCCTTTCATGGACCGGTTTTCCCGGTAATCCGTATTTGTC (site AGCCTTTCTGA)” are the same in “recombinant UMI read abundance (log10)” value: 0 for the first, 0 for the second.

“AGCCTTTCATGGACCGGTTTTCCCGGTAATCCGTATTTGTC (site AGCCTTTCTGC)” and “AGCCTTTCATGGACCGGTTTTCCCGGTAATCCGTATTTGTC (site AGCCTTTCTGG)” are the same in “recombinant UMI read abundance (log10)” value: 0 for the first, 0 for the second.

First: AGCCTTTCATGGACCGGTTTTCCCGGTAATCCGTATTTGTC (site AGCCTTTCTGT)
Second: AGCGAGTCATGGACCGGTTTTCCCGGTAATCCGTATTTGAT (site AGCGAGTCTAT)
The “recombinant UMI read abundance (log10)” value of the first is lower: 0.00535 for the first, 2.73 for the second.

Compared with “AGCTAACCATGGACCGGTTTTCCCGGTAATCCGTATTTGCA (site AGCTAACCTTG)”, “AGCTAGTCATGGACCGGTTTTCCCGGTAATCCGTATTTGAG (site AGCTAGTCTCT)” is higher in “recombinant UMI read abundance (log10)” value: 0 for the first, 2.57 for the second.

Compared with “AGCTATACATGGACCGGTTTTCCCGGTAATCCGTATTTGAC (site AACTATACTGT)”, “AGCTATACATGGACCGGTTTTCCCGGTAATCCGTATTTGAC (site ACCTATACTGT)” is higher in “recombinant UMI read abundance (log10)” value: 0.393 for the first, 0.726 for the second.

“AGCTATACATGGACCGGTTTTCCCGGTAATCCGTATTTGAC (site AGCTATACTGT)” and “AGCTATACATGGACCGGTTTTCCCGGTAATCCGTATTTGAC (site ATCTATACTGT)” are within 0.2 log units of each other in “recombinant UMI read abundance (log10)” value: 2.03 for the first, 1.85 for the second.

“AGCTCATCATGGACCGGTTTTCCCGGTAATCCGTATTTGGG (site AGCTCAACTCC)” and “AGCTCATCATGGACCGGTTTTCCCGGTAATCCGTATTTGGG (site AGCTCACCTCC)” are within 0.2 log units of each other in “recombinant UMI read abundance (log10)” value: 0 for the first, 0.0192 for the second.

Compared with “AGCTCATCATGGACCGGTTTTCCCGGTAATCCGTATTTGGG (site AGCTCAGCTCC)”, “AGCTCATCATGGACCGGTTTTCCCGGTAATCCGTATTTGGG (site AGCTCATCTCC)” is higher in “recombinant UMI read abundance (log10)” value: 0.0292 for the first, 0.833 for the second.

“AGCTCCCCATGGACCGGTTTTCCCGGTAATCCGTATTTGGG (site AGCTCCCCTCC)” and “AGCTGAGCATGGACCGGTTTTCCCGGTAATCCGTATTTGGG (site AGCTAAGCTCC)” are within 0.2 log units of each other in “recombinant UMI read abundance (log10)” value: 0.111 for the first, 0.0048 for the second.

First: AGCTGAGCATGGACCGGTTTTCCCGGTAATCCGTATTTGGG (site AGCTCAGCTCC)
Second: AGCTGAGCATGGACCGGTTTTCCCGGTAATCCGTATTTGGG (site AGCTGAGCTCC)
The “recombinant UMI read abundance (log10)” value of the first is lower: 0 for the first, 0.385 for the second.

Going from “AGCTGAGCATGGACCGGTTTTCCCGGTAATCCGTATTTGGG (site AGCTTAGCTCC)” to “AGCTGCGCATGGACCGGTTTTCCCGGTAATCCGTATTTGAA (site AGCTGCGCTTT)”, the “recombinant UMI read abundance (log10)” value rises from 0.0451 to 1.4.

First: AGCTTCGCATGGACCGGTTTTCCCGGTAATCCGTATTTGAC (site AGCTTCGCTGT)
Second: AGCTTTTCATGGACCGGTTTTCCCGGTAATCCGTATTTGAC (site AGCATTTCTGT)
The “recombinant UMI read abundance (log10)” value of the first is higher: 1.58 for the first, 0 for the second.

“AGCTTTTCATGGACCGGTTTTCCCGGTAATCCGTATTTGAC (site AGCCTTTCTGT)” and “AGCTTTTCATGGACCGGTTTTCCCGGTAATCCGTATTTGAC (site AGCGTTTCTGT)” are the same in “recombinant UMI read abundance (log10)” value: 0 for the first, 0 for the second.

First: AGCTTTTCATGGACCGGTTTTCCCGGTAATCCGTATTTGAC (site AGCTTTTCTGT)
Second: AGGAAAACATGGACCGGTTTTCCCGGTAATCCGTATTTGCG (site AGGAAAACTCG)
The “recombinant UMI read abundance (log10)” value of the first is lower: 0.00446 for the first, 1.5 for the second.

Going from “AGGAAAACATGGACCGGTTTTCCCGGTAATCCGTATTTGCG (site AGGAAGACTTG)” to “AGGAAAACATGGACCGGTTTTCCCGGTAATCCGTATTTGGG (site AGGAAAACTCC)”, the “recombinant UMI read abundance (log10)” value rises from 0 to 0.592.

First: AGGAACACATGGACCGGTTTTCCCGGTAATCCGTATTTGCC (site AGGAACACTGG)
Second: AGGAACACATGGACCGGTTTTCCCGGTAATCCGTATTTGCC (site AGGAAGACTTG)
The “recombinant UMI read abundance (log10)” value of the first is higher: 3.08 for the first, 0 for the second.

Compared with “AGGAAGACATGGACCGGTTTTCCCGGTAATCCGTATTTGCT (site AGGAAGACTAG)”, “AGGAAGACATGGACCGGTTTTCCCGGTAATCCGTATTTGCT (site AGGAAGACTCG)” is lower in “recombinant UMI read abundance (log10)” value: 2.25 for the first, 0.519 for the second.

Going from “AGGAAGACATGGACCGGTTTTCCCGGTAATCCGTATTTGCT (site AGGAAGACTGG)” to “AGGAAGACATGGACCGGTTTTCCCGGTAATCCGTATTTGCT (site AGGAAGACTTG)”, the “recombinant UMI read abundance (log10)” value rises from 0 to 1.46.

Compared with “AGGAAGACATGGACCGGTTTTCCCGGTAATCCGTATTTGGA (site AGGAAGACTTA)”, “AGGAAGACATGGACCGGTTTTCCCGGTAATCCGTATTTGGA (site AGGAAGACTTC)” is higher in “recombinant UMI read abundance (log10)” value: 1.71 for the first, 2.32 for the second.

Going from “AGGAAGACATGGACCGGTTTTCCCGGTAATCCGTATTTGGA (site AGGAAGACTTG)” to “AGGAAGACATGGACCGGTTTTCCCGGTAATCCGTATTTGGA (site AGGAAGACTTT)”, the “recombinant UMI read abundance (log10)” value rises from 1.04 to 1.63.

Compared with “AGGAAGACATGGACCGGTTTTCCCGGTAATCCGTATTTGTG (site AGGAAGACTCA)”, “AGGAAGACATGGACCGGTTTTCCCGGTAATCCGTATTTGTG (site AGGAAGACTTG)” is lower in “recombinant UMI read abundance (log10)” value: 2.35 for the first, 0.492 for the second.

First: AGGAAGCCATGGACCGGTTTTCCCGGTAATCCGTATTTGAA (site AGGAAGACTTG)
Second: AGGAAGCCATGGACCGGTTTTCCCGGTAATCCGTATTTGAA (site AGGAAGCCTTT)
The “recombinant UMI read abundance (log10)” value of the first is lower: 0 for the first, 0.308 for the second.

In the case of “AGGAAGCCATGGACCGGTTTTCCCGGTAATCCGTATTTGCA (site AGGAAGACTTG)”, the “recombinant UMI read abundance (log10)” value is reported as 0.
